According to PubChem BioAssay (NCI):
“And” between values parts separate entries of the source, which are not always exact repeats. Equal entries are not always repeated.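 These data come from cells grown in 96-well plates and exposed to compound for 48 hours at five concentrations. Abbreviation: GI50, concentration required for 50% inhibition of growth. TGI is the concentration that stops growth completely.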

How the values were obtained:
Test in all cases: NCI anticancer screen, dose series, 48 h
OVCAR-3 ovarian = test system: OVCAR-3 ovarian
UO-31 renal = test system: UO-31 renal
NCI-H226 lung = test system: NCI-H226 lung
HT29 colon = test system: HT29 colon
SW-620 colon = test system: SW-620 colon
HOP-62 NSCLC = test system: HOP-62 NSCLC
SF-295 CNS = test system: SF-295 CNS
HOP-92 NSCLC = test system: HOP-92 NSCLC
ACHN renal = test system: ACHN renal
MOLT-4 leukemia = test system: MOLT-4 leukemia

SMILES	GI50 (OVCAR-3 ovarian)	TGI (OVCAR-3 ovarian)	GI50 (UO-31 renal)	TGI (UO-31 renal)	GI50 (NCI-H226 lung)	TGI (NCI-H226 lung)	GI50 (HT29 colon)	TGI (HT29 colon)	GI50 (SW-620 colon)	TGI (SW-620 colon)	GI50 (HOP-62 NSCLC)	TGI (HOP-62 NSCLC)	GI50 (SF-295 CNS)	TGI (SF-295 CNS)	GI50 (HOP-92 NSCLC)	TGI (HOP-92 NSCLC)	GI50 (ACHN renal)	TGI (ACHN renal)	GI50 (MOLT-4 leukemia)	TGI (MOLT-4 leukemia)
O=C(NN1C(=O)CSC12CCCC2)C(O)c1ccccc1 (stereo not drawn)	> 100 µM	> 100 µM	> 100 µM	> 100 µM	> 100 µM	> 100 µM	> 100 µM	> 100 µM	> 100 µM	> 100 µM	> 100 µM	> 100 µM	> 100 µM	> 100 µM	> 100 µM	> 100 µM	> 100 µM	> 100 µM	> 100 µM	> 100 µM
COc1cc(/C=C\c2cc(/C=C\c3ccc(O)c(OC)c3)n(C(=O)CNc3ccc(Cl)cc3)n2)ccc1O	2.46 µM	8.11 µM	1.21 µM	8.42 µM	4.39 µM	21.6 µM	3 µM	9.27 µM	4.75 µM	23.2 µM	4.14 µM	16.7 µM	6.07 µM	20.1 µM	5.65 µM	24.2 µM	0.628 µM	14.9 µM	2.05 µM	15.6 µM
CC(=O)O[C@H]1C(=O)[C@@]2(C)[C@H]([C@H](OC(=O)c3ccccc3)[C@@]3(O)C[C@H](O)C(C)=C1C3(C)C)[C@]1(OC(C)=O)CO[C@@H]1C[C@@H]2O		> 100 µM		> 100 µM		> 100 µM		86.6 µM		> 100 µM		> 100 µM		> 100 µM		> 100 µM		> 100 µM		> 100 µM
CC(C)(C)c1ccc(O)c(CN(Cc2cc(C(C)(C)C)ccc2O)C2CCCCC2)c1		34.9 µM		99.9 µM	28.5 µM	> 100 µM		37.1 µM		35.1 µM		46.5 µM		34 µM		23.9 µM		37.4 µM		49.8 µM
CC(C)(C)NC/C(=C\c1ccccc1)C(=O)c1ccccc1	1.19 µM	3.19 µM	1.41 µM	2.88 µM	2.2 µM	11.2 µM	0.9 µM	3.52 µM	1.22 µM	3.5 µM	3.44 µM	11.4 µM	2.86 µM	11.4 µM	2.4 µM	6.56 µM	1.45 µM	3.62 µM	2.23 µM	45.9 µM
Nc1nc(N)c(N=Nc2ccc(C(=O)O)c(O)c2)c(N)n1		53.8 µM		> 100 µM		> 100 µM		> 100 µM		> 100 µM		> 100 µM		> 100 µM		> 100 µM		> 100 µM		> 100 µM
COc1ccc(/C=C\c2cc(OC)c(OC)c(OC)c2)c(O)c1O	0.0695 µM and 0.0832 µM	6.47 µM and 0.77 µM	6.76 µM	33.7 µM and > 77.8 µM	0.297 µM and 0.05 µM	1.69 µM and 1.62 µM	20.1 µM	36.1 µM and 103 µM	0.0715 µM	16.9 µM and 49.9 µM	1.98 µM	68.8 µM and 109 µM	0.0286 µM		0.0588 µM			57.7 µM	0.456 µM	20.8 µM and 3.4 µM
COc1cc(-c2ccc(NC(=O)NC3CC3)c(OC)c2)ccc1NC(=O)NC1CC1	25.7 µM	> 100 µM	5.27 µM	> 100 µM	7.25 µM	> 100 µM	5.81 µM	> 100 µM	5.39 µM	> 100 µM	28.8 µM	> 100 µM	4.36 µM	> 100 µM	7.66 µM	> 67.7 µM	7.05 µM	> 100 µM	3.33 µM	> 100 µM
COC(=O)c1ccc2c(c1)c1c(C)c3ccncc3c(C)c1n2C	0.536 µM	47.2 µM	0.0717 µM	77.5 µM	0.352 µM	13.2 µM	0.133 µM	> 100 µM	0.0658 µM	58.3 µM	0.106 µM	> 100 µM	0.0647 µM	7.48 µM	0.378 µM	> 100 µM	0.0519 µM	> 100 µM	0.0992 µM	44.7 µM
CCOC(=O)C1SC(=Nc2ccc(Cl)cc2C)N=C1C (stereo not drawn)		48.2 µM		39.9 µM		63.5 µM		30.3 µM		53.7 µM		43.2 µM		52.9 µM		30 µM		57.2 µM		47.9 µM
CC(CCCC1SCC2NC(=O)NC21)C(=O)O (stereo not drawn)		> 100 µM		> 100 µM		> 100 µM		> 100 µM		> 100 µM		> 100 µM		> 100 µM		> 100 µM		> 100 µM		> 100 µM
CCOc1c(C#N)c2c(N)ncnc2n1C1OC(CO)C(O)C1O (stereo not drawn)	2.53 µM	7.09 µM	2.86 µM	> 40.3 µM	6.93 µM	> 91.8 µM	2.89 µM	> 34.1 µM	2.18 µM	> 44.6 µM	5.01 µM	26.5 µM	4.63 µM	> 100 µM	2.82 µM	> 100 µM	2.95 µM	> 100 µM	2.95 µM	15.1 µM
COCOCC[C@@H]1CC=CC(NC(=O)OCc2ccccc2)C1/C=C/C(=O)CCC1OCCO1 (stereo partly drawn)		> 76.1 µM		> 100 µM		> 100 µM		> 100 µM		59.5 µM		> 100 µM		> 100 µM		> 100 µM		> 100 µM		43.4 µM
CN(C)CCNC(=O)c1cccc2ncc(-c3ccccc3)nc12		66.8 µM		> 67.8 µM		31.3 µM		52.4 µM		63.5 µM		34.7 µM		58.5 µM		59.1 µM		> 94.3 µM		9.35 µM
O=C(Nc1nc(-c2ccc(Cl)cc2)nc2c1sc(=S)n2-c1ccccc1)C(F)(F)F	2.81 µM	6.97 µM	1.87 µM	4.04 µM	2.89 µM	9.61 µM	3.73 µM	> 100 µM	4.34 µM	26.3 µM	2.83 µM	7.98 µM	1.71 µM	4.01 µM	2.35 µM	6.08 µM	1.81 µM	3.56 µM	> 100 µM	> 100 µM
O=S(=O)(Nc1ccc2ccccc2c1)c1ccc(-c2cnc(C3CC3)o2)cc1	0.435 µM	5.37 µM	1.68 µM	18.8 µM	3.99 µM	20.4 µM	0.429 µM	17.6 µM	0.468 µM	18.3 µM	1.3 µM	17.1 µM	0.452 µM	5.46 µM	3.68 µM	30.9 µM	2.61 µM	42.8 µM	0.873 µM	> 100 µM
O=C(O)CCSC(=S)Nc1cccc(F)c1		> 100 µM		> 100 µM		> 100 µM		> 100 µM		> 100 µM		> 100 µM		> 100 µM		98.9 µM		83.3 µM		> 100 µM
C/C(CCn1[nH]c(=O)ccc1=O)=N\Nc1ccc([N+](=O)[O-])cc1[N+](=O)[O-]		> 100 µM		> 100 µM		> 100 µM		> 100 µM		> 100 µM		> 100 µM		> 100 µM		> 100 µM		> 100 µM		> 100 µM
CC1=NN(C(=O)c2ccncc2)C(=O)C1N=Nc1ccc2ccccc2c1 (stereo not drawn)		> 100 µM		> 100 µM		> 100 µM		> 100 µM		> 100 µM		> 100 µM		> 100 µM		> 100 µM		> 100 µM		> 38.1 µM
CC[C@]12C=CCN3CC[C@@]4(c5ccc(OC)cc5N(C)[C@H]4[C@@](O)(C(=O)OC)[C@@H]1OC(=O)CCC(=O)N[C@H](Cc1c[nH]c4ccccc14)C(=O)OC)[C@@H]32	3.8 µM	16.4 µM	2.97 µM	13.7 µM	5.39 µM	27.5 µM	3.11 µM	14.4 µM	3.03 µM	10.6 µM	6.32 µM	24.5 µM	15.8 µM	39.5 µM	4.02 µM	24.4 µM	13.4 µM	52.7 µM	3.25 µM	> 100 µM
CCCN1C(=O)/C(=C/c2ccc(O)cc2)SC1=Nc1ccc(OC)cc1	17.3 µM	42.8 µM	25.7 µM	> 100 µM	32 µM	95.5 µM	22.1 µM	48.4 µM	18 µM	48.3 µM	28 µM	80 µM	14.7 µM	34.9 µM	6.91 µM	23.2 µM	12.7 µM	25.3 µM	10.7 µM	> 100 µM
N#Cc1c(N)nc(N2CCSCC2)c(C#N)c1-c1ccc(O)cc1	17.5 µM	44.8 µM	23.2 µM	> 100 µM	21.9 µM	58.5 µM	16.7 µM	37.6 µM	27.5 µM	> 100 µM	12.6 µM	28.3 µM	18.4 µM	55.7 µM	10.1 µM	47.5 µM	18.9 µM	59 µM	11.6 µM	34.5 µM
